Data on 3 compounds can be found in ChEMBL document CHEMBL4033666, “Synthesis and mechanistic evaluation of novel N'-benzylidene-carbohydrazide-1H-pyrazolo[3,4-b]pyridine derivatives as non-anionic antiplatelet agents” (Eur J Med Chem, 2017).

pIC50: −log10 of the molar value. Calls of active or inactive are those of the source. Unless noted, the calls are words filed in the database; no cut-off is given here.

The nature of data set [1]: Hemolytic activity against human erythrocytes after 3 hrs relative to control. It is filed as ADME, cell-based, Erythrocyte. The conditions noted are these: read-out: Activity.
In data set [2] the test system is Platelet. The data set is described as follows: Antiplatelet activity in human platelet rich plasma assessed as inhibition of […]-induced platelet aggregation at 100 uM preincubated for 2 mins followed by […] addition by turbidimetric method. It is filed as functional, cell-based.
In data set [3] the test system is Platelet. The data set is described as follows: Antiplatelet activity in human platelet rich plasma assessed as inhibition of arachidonic acid-induced platelet aggregation preincubated for 2 mins followed by arachidonic acid addition by turbidimetric method relative to control. It is filed as functional, cell-based.
The test system of data set [4] is Platelet. As to the kind of experiment: Antiplatelet activity in human platelet rich plasma assessed as inhibition of ADP-induced platelet aggregation at 100 uM preincubated for 2 mins followed by ADP addition by turbidimetric method relative to control. It is filed as cell-based.
The subject of data set [5] is Platelet. As to the kind of experiment: Antiplatelet activity in human platelet rich plasma assessed as inhibition of ADP-induced platelet aggregation preincubated for 2 mins followed by ADP addition by turbidimetric method. It is filed as cell-based.
Data set [6] relates to Plasma. The data set is described as follows: Change in activated partial thromboplastin time in human plasma at 100 uM incubated for 15 mins at room temperature and 2 mins at 37 degC in presence of CaCl2. It is filed as ADME, cell-free.
Data set [7] concerns Platelet. The data set is described as follows: Drug uptake in human platelet assessed as co-localization with CD31 at 100 uM by confocal microscopy analysis. It is filed as ADME, cell-based.
A short description of data set [8]: Binding affinity to DOPC/DOPS large unilamellar vesicles assessed as blue shift at 100 uM by DAPI staining based fluorescence assay.
The subject of data set [9] is Platelet. The data set is described as follows: Antiplatelet activity in human platelet rich plasma assessed as inhibition of epinephrine-induced platelet aggregation preincubated for 2 mins followed by epinephrine addition by turbidimetric method. In kind it is cell-based.
The target of data set [10] is T1, Prostaglandin G/H synthase 1 (Ovis aries, UniProt P05979).
T1 sequence (P05979 whole entry): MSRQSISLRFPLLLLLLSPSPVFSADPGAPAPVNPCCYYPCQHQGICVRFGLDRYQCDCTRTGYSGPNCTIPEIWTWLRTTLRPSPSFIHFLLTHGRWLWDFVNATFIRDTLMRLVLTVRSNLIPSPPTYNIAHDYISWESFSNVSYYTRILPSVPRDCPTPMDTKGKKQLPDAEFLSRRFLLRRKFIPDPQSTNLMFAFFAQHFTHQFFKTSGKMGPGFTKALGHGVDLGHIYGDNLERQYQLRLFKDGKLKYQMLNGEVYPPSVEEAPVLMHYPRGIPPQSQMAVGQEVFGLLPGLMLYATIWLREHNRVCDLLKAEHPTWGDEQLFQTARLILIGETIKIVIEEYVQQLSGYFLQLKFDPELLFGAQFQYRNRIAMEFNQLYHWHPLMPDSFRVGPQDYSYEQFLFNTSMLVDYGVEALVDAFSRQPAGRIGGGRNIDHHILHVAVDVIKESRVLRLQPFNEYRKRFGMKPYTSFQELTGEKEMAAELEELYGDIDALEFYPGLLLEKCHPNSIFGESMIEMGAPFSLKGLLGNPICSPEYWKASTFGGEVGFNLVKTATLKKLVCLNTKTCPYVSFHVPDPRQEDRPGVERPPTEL
The data set is described as follows: Inhibition of ovine COX-1 assessed as reduction in PGH2 production up to 100 uM using arachidonic acid as substrate preincubated for 5 mins followed by substrate and hematin addition measured after 2 mins by ELISA relative to control. The conditions noted are these: sheep. In general terms: In an ELISA, binding on a coated surface is turned into a signal by an enzyme label.

The next data set relates to Blood. As to the kind of experiment: Reduction of clot retraction in human whole blood after 2 hrs. It is filed as ADME, tissue-based.
For data set [11], the system named is Platelet. The data set is described as follows: Antiplatelet activity in human platelet rich plasma assessed as inhibition of collagen-induced platelet aggregation at 100 uM preincubated for 2 mins followed by collagen addition by turbidimetric method relative to control. In kind it is cell-based.
The target in data set [12] is T1, Prostaglandin G/H synthase 1. As to the kind of experiment: Inhibition of ovine COX-1 assessed as reduction in PGH2 production at 100 uM using arachidonic acid as substrate preincubated for 5 mins followed by substrate and hematin addition measured after 2 mins by ELISA relative to control. The conditions noted are these: sheep.
Data set [13] concerns the target T2, Thromboxane-A synthase (Homo sapiens) (UniProt P24557).
T2 sequence (whole entry): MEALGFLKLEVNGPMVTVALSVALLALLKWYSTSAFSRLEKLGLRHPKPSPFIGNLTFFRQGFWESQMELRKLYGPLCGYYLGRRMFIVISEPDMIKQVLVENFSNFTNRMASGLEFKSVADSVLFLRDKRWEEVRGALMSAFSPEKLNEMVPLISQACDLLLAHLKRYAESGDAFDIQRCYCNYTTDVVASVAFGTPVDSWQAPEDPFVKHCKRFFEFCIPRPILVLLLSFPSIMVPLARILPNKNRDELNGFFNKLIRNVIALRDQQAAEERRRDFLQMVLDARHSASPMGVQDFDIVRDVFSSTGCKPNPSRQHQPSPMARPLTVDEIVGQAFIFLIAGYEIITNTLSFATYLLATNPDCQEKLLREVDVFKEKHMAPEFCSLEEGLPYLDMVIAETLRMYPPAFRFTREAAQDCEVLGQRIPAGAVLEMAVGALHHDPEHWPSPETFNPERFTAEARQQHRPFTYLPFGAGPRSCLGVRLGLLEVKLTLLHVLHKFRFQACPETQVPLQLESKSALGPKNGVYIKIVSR
As to the kind of experiment: Inhibition of TXS in human platelet rich plasma assessed as decrease in TXB2 production at 100 uM using arachidonic acid after 5 mins by ELISA.

Data set [14] has as its system Platelet. As to the kind of experiment: Antiplatelet activity in human platelet rich plasma assessed as inhibition of arachidonic acid-induced platelet aggregation at 100 uM preincubated for 2 mins followed by arachidonic acid addition by turbidimetric method relative to control. In kind it is functional.
Data set [15] concerns Plasma. The data set is described as follows: Change in prothrombin time in human plasma at 100 uM incubated for 15 mins at room temperature and 2 mins at 37 degC in presence of calcium thromboplastin. It is filed as ADME, cell-free.
Data set [16] deals with Platelet. As to the kind of experiment: Antiplatelet activity in human platelet rich plasma assessed as inhibition of collagen-induced platelet aggregation preincubated for 2 mins followed by collagen addition by turbidimetric method. In kind it is cell-based.
In data set [17] the test system is Platelet. As to the kind of experiment: Drug uptake in human platelet assessed as co-localization with CD31 at 100 uM by epifluorescence assay. In kind it is ADME, cell-based.
Data set [18] addresses T3, Prostaglandin G/H synthase 2 (Homo sapiens, UniProt P35354).
T3 sequence (P35354 whole entry): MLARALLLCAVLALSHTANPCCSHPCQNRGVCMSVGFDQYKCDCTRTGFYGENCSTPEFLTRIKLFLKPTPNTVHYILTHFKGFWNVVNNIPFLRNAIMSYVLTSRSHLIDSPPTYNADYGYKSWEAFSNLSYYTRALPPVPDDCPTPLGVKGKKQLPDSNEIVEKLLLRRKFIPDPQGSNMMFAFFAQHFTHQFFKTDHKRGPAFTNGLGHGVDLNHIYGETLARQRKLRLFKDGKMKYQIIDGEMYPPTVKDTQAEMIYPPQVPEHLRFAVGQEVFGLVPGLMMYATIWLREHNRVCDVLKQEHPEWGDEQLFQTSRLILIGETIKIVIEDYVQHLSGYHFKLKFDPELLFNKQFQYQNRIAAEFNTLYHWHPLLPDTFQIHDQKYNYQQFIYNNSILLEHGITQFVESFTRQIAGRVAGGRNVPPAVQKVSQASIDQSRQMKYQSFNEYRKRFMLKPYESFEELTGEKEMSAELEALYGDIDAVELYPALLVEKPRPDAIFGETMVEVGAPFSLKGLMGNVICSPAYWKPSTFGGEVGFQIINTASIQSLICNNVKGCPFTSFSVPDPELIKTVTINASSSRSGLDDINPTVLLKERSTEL
As to the kind of experiment: Inhibition of recombinant human COX-2 assessed as reduction in PGH2 production at 100 uM using arachidonic acid as substrate preincubated for 5 mins followed by substrate and hematin addition measured after 2 mins by ELISA relative to control.

Data set [19] deals with Platelet. As to the kind of experiment: Potency index, ratio of aspirin IC50 to test compound IC50 for inhibition of arachidonic acid-induced platelet aggregation in human platelet rich plasma. In kind it is functional.
Data set [20] has as its system Platelet. As to the kind of experiment: Antiplatelet activity in human platelet rich plasma assessed as inhibition of epinephrine-induced platelet aggregation at 100 uM preincubated for 2 mins followed by epinephrine addition by turbidimetric method relative to control. It is filed as cell-based.
Data set [21] relates to Platelet. As to the kind of experiment: Potency index, ratio of ozagrel IC50 to test compound IC50 for inhibition of arachidonic acid-induced platelet aggregation in human platelet rich plasma. In kind it is functional.
Another data set addresses Cytochrome P450 3A4 (Homo sapiens, UniProt P08684). As to the kind of experiment: Inhibition of recombinant human CYP3A4 expressed in baculosomes using BOMR as substrate preincubated for 10 mins followed by substrate/NADP+ addition measured for 1 hr. In kind it is ADME.
The target in data set [22] is T3, Prostaglandin G/H synthase 2. The data set is described as follows: Inhibition of recombinant human COX-2 assessed as reduction in PGH2 production up to 100 uM using arachidonic acid as substrate preincubated for 5 mins followed by substrate and hematin addition measured after 2 mins by ELISA relative to control.
Data set [23] concerns the target Prostaglandin G/H synthase 1 (Homo sapiens, UniProt P23219). As to the kind of experiment: Inhibition of COX1 in human platelet rich plasma assessed as decrease in PGE2 production at 100 uM using arachidonic acid as substrate after 5 mins by ELISA.
The target in data set [24] is T1, Prostaglandin G/H synthase 1. As to the kind of experiment: Inhibition of ovine COX-1 assessed as reduction in PGH2 production using arachidonic acid as substrate preincubated for 5 mins followed by substrate and hematin addition measured after 2 mins by ELISA relative to control. The note with it: sheep.
Data set [25] can be described thus: Selectivity ratio of IC50 for recombinant human CYP3A4 to IC50 for arachidonic acid-induced platelet aggregation in human platelet rich plasma.

Cytochrome P450 3A4, sequence (P08684 whole entry): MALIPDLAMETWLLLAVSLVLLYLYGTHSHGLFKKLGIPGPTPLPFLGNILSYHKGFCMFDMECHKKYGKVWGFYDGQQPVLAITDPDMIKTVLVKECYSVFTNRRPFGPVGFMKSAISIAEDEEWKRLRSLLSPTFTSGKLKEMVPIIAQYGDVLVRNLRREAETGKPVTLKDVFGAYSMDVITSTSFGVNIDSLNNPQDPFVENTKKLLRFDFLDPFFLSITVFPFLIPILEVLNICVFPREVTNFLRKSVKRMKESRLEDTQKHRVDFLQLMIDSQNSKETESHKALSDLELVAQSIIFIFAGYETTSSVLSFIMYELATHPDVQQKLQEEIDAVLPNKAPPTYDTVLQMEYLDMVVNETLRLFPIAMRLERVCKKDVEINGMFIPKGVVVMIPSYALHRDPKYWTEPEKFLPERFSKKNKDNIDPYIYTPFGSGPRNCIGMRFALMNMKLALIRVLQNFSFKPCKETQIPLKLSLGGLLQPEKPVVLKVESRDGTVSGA
Prostaglandin G/H synthase 1 (Homo sapiens, UniProt P23219), sequence (P23219 whole entry): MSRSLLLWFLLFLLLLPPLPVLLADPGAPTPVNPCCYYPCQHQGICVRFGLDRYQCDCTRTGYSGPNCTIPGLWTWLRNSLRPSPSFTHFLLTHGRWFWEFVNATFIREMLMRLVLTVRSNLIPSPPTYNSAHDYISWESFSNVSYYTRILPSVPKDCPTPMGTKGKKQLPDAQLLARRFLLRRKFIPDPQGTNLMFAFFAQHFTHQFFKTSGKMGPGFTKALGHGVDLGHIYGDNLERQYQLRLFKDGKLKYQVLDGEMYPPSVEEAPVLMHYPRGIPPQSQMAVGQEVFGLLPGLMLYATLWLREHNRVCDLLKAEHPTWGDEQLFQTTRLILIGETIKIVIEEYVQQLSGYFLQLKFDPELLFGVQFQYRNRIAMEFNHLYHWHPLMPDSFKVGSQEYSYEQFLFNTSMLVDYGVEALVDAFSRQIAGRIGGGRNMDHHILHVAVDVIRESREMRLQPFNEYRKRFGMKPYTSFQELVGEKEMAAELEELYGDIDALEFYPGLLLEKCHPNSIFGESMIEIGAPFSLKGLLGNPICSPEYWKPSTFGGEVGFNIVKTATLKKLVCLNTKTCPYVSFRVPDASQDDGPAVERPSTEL

By inhibition is commonly meant how much of the control response was suppressed. The term pIC50 denotes −log10 of the IC50, conventionally taken in molar units. Take `Cc1cc(C(=O)N/N=C/c2ccc(O)cc2)c2c(C)nn(-c3ccccc3)c2n1`: the hemolysis at 3 h in data set [1] was determined as 0%. In the data set on Platelet [2], the inhibition result was “inactive”. Further, the pIC50 in the data set with Platelet [3] was 4.99 to 5.44; with Platelet [5], < 4.00; in the data set with Platelet [9] it was < 4.00; with Platelet [16], < 4.00. The inhibition at 100 µM is 3.22% in the data set with Platelet [4], 64.6% with Platelet [11], 96.8% with Platelet [14] and 3.3% in the data set on Platelet [20]. Also, the Activity entry in the data set on Plasma [6], with Blood and in the data set with Plasma [15] was “Non-Toxic” each time. In addition, the Drug uptake entry with Platelet [7] and with Platelet [17] was “Active” throughout. In addition, the result in [8] was Active. In addition, the “inhibition (INH)” value in data set [10] is on record as “Not Active”; in [12], “Active”; in data set [18], “Active”; at Cytochrome P450 3A4 (human, recombinant enzyme, 1 h) it was “Dose-dependent effect”; in data set [22] it was “Not Active”; in data set [23], “Not Active”. In data set [13], the inhibition entry was “Active”. The “Ratio IC50” value in the data set on Platelet [19] and with Platelet [21] was “<=10” in each case.
In the case of `COc1ccc2c(c1)c(CC(=O)O)c(C)n2C(=O)c1ccc(Cl)cc1` [INDOMETHACIN], in data set [24], the “inhibition (INH)” value is given as < 20%.
Consider `Cc1cc(C(=O)N/N=C/c2ccc(Br)cc2)c2c(C)nn(-c3ccccc3)c2n1`, for which the hemolysis at 3 h in data set [1] worked out at 5%. Moreover, in the data set with Platelet [2], the inhibition entry was “inactive”. The pIC50 was 4.99 to 5.44 with Platelet [3]; < 4.00 with Platelet [5]; < 4.00 in the data set on Platelet [9]; < 4.00 in the data set with Platelet [16]; 3.86 at Cytochrome P450 3A4. Moreover, the inhibition at 100 µM worked out at 9.4% with Platelet [4], 17% in the data set on Platelet [11], 94.8% in the data set with Platelet [14] and 11.8% in the data set on Platelet [20]. Further, the Activity result in the data set with Plasma [6], in the data set with Blood and with Plasma [15] was “Non-Toxic” in each case. The Drug uptake result in the data set with Platelet [7] and with Platelet [17] was “Active” in each case. Besides, in data set [8], the result was Active. The “inhibition (INH)” value in [10], in [22] and in data set [23] was “Not Active” throughout. In addition, the results for the Ratio IC50 (in data set [25]; in the data set on Platelet [19]; in the data set with Platelet [21]) were 20 to 30, “<=10” and “<=10”, respectively. For the same compound, the inhibition entry in data set [13] was “Active”.
